ChEMBL document CHEMBL4619763 (J Nat Prod, 2020)
Calls of active or inactive are those of the source. The calls are words filed in the database; no cut-off is given here.

Tests used:
Rattus norvegicus [1] = assay: Diuretic activity in normotensive Wistar rat assessed as increase in urine volume excretion at 0.1 to 1 mg/kg, po administered via gavage after 1 hr; format: functional, organism-based
Rattus norvegicus [2] = assay: Diuretic activity in normotensive Wistar rat assessed as urine pH at 1 mg/kg, ip after 8 hrs (reference value: 6.05 +/- 0.22); format: functional
[3] = Toxicity in spontaneous hypertensive Wistar rat assessed as changes in plasma uric acid level at 0.1 mg/kg, po administered for 7 days; format: organism-based; conditions: in vivo, 168 h
Rattus norvegicus [4] = assay: Diuretic activity in normotensive Wistar rat assessed as urinary calcium excretion at 1 mg/kg, po administered via gavage after 8 hrs (reference value: 5.93 to 6.87 mg/dl); format: functional
Rattus norvegicus [5] = assay: Diuretic activity in normotensive Wistar rat assessed as decrease in urinary calcium excretion at 0.1 mg/kg, po administered via gavage for 7 days; format: functional, organism-based
Rattus norvegicus [6] = assay: Diuretic activity in normotensive Wistar rat assessed as urinary potassium excretion at 1 mg/kg, po administered via gavage after 8 hrs (reference value: 22.39 to 24.21 mmol/L); format: ADME, organism-based; conditions: in vivo
Rattus norvegicus [7] = assay: Diuretic activity in normotensive Wistar rat assessed as urinary calcium excretion at 0.1 mg/kg, po administered via gavage after 8 hrs in presence of hydrochlorothiazide (reference value: 5.93 to 6.87 mg/dl); format: functional
Rattus norvegicus [8] = assay: Renal protective activity in spontaneous hypertensive Wistar rat assessed as reduction in hypertension-induced Bowman's capsule thickening at 0.1 mg/kg, po administered via gavage for 7 days by hematoxylin and eosin staining based microscopic analysis; format: functional, organism-based
Rattus norvegicus [9] = assay: Diuretic activity in normotensive Wistar rat assessed as urine conductivity at 0.1 mg/kg, po administered via gavage after 8 hrs in presence of atropine (reference value: 19.54 +/- 0.98 mS/cm); format: functional
Rattus norvegicus [10] = assay: Diuretic activity in normotensive Wistar rat assessed as urinary chloride excretion at 0.1 mg/kg, po administered via gavage after 8 hrs in presence of atropine (reference value: 135.10 to 143.70 mmol/L); format: functional
[11] = Toxicity in normotensive Wistar rat assessed as changes in plasma potassium level at 0.1 mg/kg, po administered for 7 days; format: organism-based; conditions: in vivo, 168 h
Rattus norvegicus [12] = assay: Diuretic activity in normotensive Wistar rat assessed as urinary chloride excretion at 1 mg/kg, po administered via gavage after 8 hrs (reference value: 135.10 to 143.70 mmol/L); format: functional
[13] = Anti-urolithic activity in synthetic urine assessed as decrease in absorbance at 0.1 mg/mL after 30 mins relative to control; format: functional; design: scale not given: the % may be the effect or the level left
Rattus norvegicus [14] = assay: Diuretic activity in normotensive Wistar rat assessed as urinary calcium excretion at 0.1 mg/kg, po administered via gavage after 8 hrs (reference value: 5.93 to 6.87 mg/dl); format: functional
Rattus norvegicus [15] = assay: Diuretic activity in normotensive Wistar rat assessed as urine pH at 0.01 mg/kg, po administered via gavage after 8 hrs (reference value: 6.14 to 6.21); format: functional
Rattus norvegicus [16] = assay: Diuretic activity in normotensive Wistar rat assessed as urinary potassium excretion at 0.1 mg/kg, po administered via gavage after 8 hrs in presence of indomethacin (reference value: 22.39 to 24.21 mmol/L); format: ADME, organism-based; conditions: in vivo
[17] = Anti-urolithic activity in synthetic urine assessed as decrease in absorbance at 0.1 mg/mL after 60 mins relative to control; format: functional; design: scale not given: the % may be the effect or the level left
[18] = Toxicity in normotensive Wistar rat assessed as changes in plasma chloride level at 0.1 mg/kg, po administered for 7 days; format: organism-based; conditions: in vivo, 168 h
[19] = Anti-urolithic activity in synthetic urine assessed as decrease in absorption at 0.1 mg/mL relative to control; format: functional; design: scale not given: the % may be the effect or the level left
Rattus norvegicus [20] = assay: Diuretic activity in normotensive Wistar rat assessed as urine pH at 1 mg/kg, po administered via gavage after 8 hrs (reference value: 6.14 to 6.21); format: functional
Rattus norvegicus [21] = assay: Diuretic activity in normotensive Wistar rat assessed as urine pH at 0.1 mg/kg, po administered via gavage after 8 hrs in presence of indomethacin (reference value: 6.14 to 6.21); format: functional
Rattus norvegicus [22] = assay: Diuretic activity in normotensive Wistar rat assessed as urinary chloride excretion at 0.1 mg/kg, po administered via gavage after 8 hrs in presence of hydrochlorothiazide (reference value: 135.10 to 143.70 mmol/L); format: functional
Rattus norvegicus [23] = assay: Diuretic activity in normotensive Wistar rat assessed as urinary sodium excretion at 0.1 mg/kg, po administered via gavage after 8 hrs in presence of indomethacin (reference value: 61.82 to 80.81 mmol/L); format: functional
Rattus norvegicus [24] = assay: Diuretic activity in normotensive Wistar rat assessed as increase in urinary chloride excretion at 0.1 mg/kg, po administered via gavage for 7 days; format: functional, organism-based
[25] = Toxicity in spontaneous hypertensive Wistar rat assessed as changes in plasma calcium level at 0.1 mg/kg, po administered for 7 days; format: organism-based; conditions: in vivo, 168 h
Rattus norvegicus [26] = assay: Diuretic activity in normotensive Wistar rat assessed as increase in urine volume excretion at 1 mg/kg, ip a after 6 hr; format: functional, organism-based
Rattus norvegicus [27] = assay: Diuretic activity in spontaneous hypertensive Wistar rat assessed as increase in urine volume at 0.1 mg/kg, po administered via gavage for 7 days; format: functional, organism-based
Rattus norvegicus [28] = assay: Diuretic activity in normotensive Wistar rat assessed as urine conductivity at 0.01 mg/kg, po administered via gavage after 8 hrs (reference value: 19.54 +/- 0.98 mS/cm); format: functional
Rattus norvegicus [29] = assay: Diuretic activity in normotensive Wistar rat assessed as urinary potassium excretion at 1 mg/kg, ip […] after 8 hrs (reference value: 22.33 +/- 2.81 mmol/L); format: ADME, organism-based; conditions: in vivo
Rattus norvegicus [30] = assay: Diuretic activity in normotensive Wistar rat assessed as urinary sodium excretion at 0.1 mg/kg, po administered via gavage after 8 hrs in presence of amiloride (reference value: 61.82 to 80.81 mmol/L); format: functional
Rattus norvegicus [31] = assay: Diuretic activity in normotensive Wistar rat assessed as urinary calcium excretion at 0.1 mg/kg, po administered via gavage after 8 hrs in presence of indomethacin (reference value: 5.93 to 6.87 mg/dl); format: functional
Rattus norvegicus [32] = assay: Diuretic activity in normotensive Wistar rat assessed as urinary sodium excretion at 0.01 mg/kg, ip after 8 hrs (reference value: 81.56 +/- 13.10 mmol/L); format: functional
Rattus norvegicus [33] = assay: Diuretic activity in normotensive Wistar rat assessed as urinary potassium excretion at 0.01 mg/kg, ip […] after 8 hrs (reference value: 22.33 +/- 2.81 mmol/L); format: ADME, organism-based; conditions: in vivo
Rattus norvegicus [34] = assay: Diuretic activity in normotensive Wistar rat assessed as urinary potassium excretion at 0.1 mg/kg, ip […] after 8 hrs (reference value: 22.33 +/- 2.81 mmol/L); format: ADME, organism-based; conditions: in vivo
[35] = Antioxidant activity assessed as DPPH radical scavenging activity at 100 to 1000 ug/ml after 5 mins; format: functional
[36] = Anti-urolithic activity in synthetic urine assessed as reduction in CaOx crystal formation at 0.1 mg/mL in presence of sodium oxalate after 60 mins by Neubauer counting chamber method relative to control; format: functional; design: scale not given: the % may be the effect or the level left
Rattus norvegicus [37] = assay: Diuretic activity in normotensive Wistar rat assessed as urinary sodium excretion at 0.1 mg/kg, ip after 8 hrs (reference value: 81.56 +/- 13.10 mmol/L); format: functional

## C[C@@H]1O[C@@H](Oc2c(-c3ccc(O)cc3)oc3cc(O)cc(O)c3c2=O)[C@H](O)[C@H](O)[C@H]1O [AFZELIN]
Rattus norvegicus [1]
  Activity: Active
Rattus norvegicus [2]
  pH: 5.91
[3]
  Activity: Non-Toxic
Rattus norvegicus [4]
  Activity: 6.08 mg/dL
Rattus norvegicus [5]
  Activity: Active
Rattus norvegicus [6]
  Activity: 22.5 mmol/L
Rattus norvegicus [7]
  Activity: 4.54 mg/dL
Rattus norvegicus [8]
  Activity: Active
Rattus norvegicus [9]
  Activity: 19.09 mS/cm
Rattus norvegicus [10]
  Activity: 231.8 mmol/L
[11]
  Activity: Non-Toxic
Rattus norvegicus [12]
  Activity: 165.2 mmol/L
[13]
  Activity: 21.54%
Rattus norvegicus [14]
  Activity: 5.22 to 6.33 mg/dL
Rattus norvegicus [15]
  pH: 5.73
Rattus norvegicus [16]
  Activity: 17.87 mmol/L
[17]
  Activity: 27.21%
[18]
  Activity: Non-Toxic
[19]
  Activity: 27.81%
Rattus norvegicus [20]
  pH: 6.29
Rattus norvegicus [21]
  pH: 5.94
Rattus norvegicus [22]
  Activity: 333.4 mmol/L
Rattus norvegicus [23]
  Activity: 81.55 mmol/L
Rattus norvegicus [24]
  Activity: Active
[25]
  Activity: Non-Toxic
Rattus norvegicus [26]
  Activity: Active
Rattus norvegicus [27]
  Activity: Active
Rattus norvegicus [28]
  Activity: 22.17 mS/cm
Rattus norvegicus [29]
  Activity: 14.41 mmol/L
Rattus norvegicus [30]
  Activity: 79.24 mmol/L
Rattus norvegicus [31]
  Activity: 4.82 mg/dL
Rattus norvegicus [32]
  Activity: 51.84 mmol/L
Rattus norvegicus [33]
  Activity: 15.61 mmol/L
Rattus norvegicus [34]
  Activity: 12.79 mmol/L
[35]
  Activity: Active
[36]
  Activity: 48.88%
Rattus norvegicus [37]
  Activity: 40.93 mmol/L
